These results are taken from patent publication US20250064777A1, “PHARMACEUTICAL COMPOSITION FOR TREATMENT OF CASTRATION-RESISTANT PROSTATE CANCER COMPRISING BRUCEANTIN AND NANOPARTICLES” (SAMSUNG LIFE PUBLIC WELFARE FOUNDATION, priority 2021, published 2025).

Data set [1] can be described thus: Solubility of nano-bruceantin in aqueous solution (visual examination, UV-Vis spectroscopy). It counts as physicochemical.
Data set [2] concerns nude mice. Kind of data set: Short-term toxicity of bruceantin and nano-bruceantin. The conditions noted are these: 5 mg/kg daily for 7 days, FIG. 3. Type of data set: in vivo. How it is done: (§1) As Experimental Animals, 6-Week-Old Male Nude Mice (Orient Bio, Korea) were used.
Mice were divided into a nanoparticle-administered group (nano-Veh), a phosphate buffer saline-administered group (PBS), a nano-bruceantin-administered group (nano-BCT), and a bruceantin-administered group (free-BCT). The nano-BCT group was orally administered nano-bruceantin at 5 mg/kg daily for 7 days, and the free-BCT group was orally administered bruceantin at 5 mg/kg daily for 7 days.

Data set [3] has as its system nude mice. Kind of data set: Long-term toxicity of bruceantin and nano-bruceantin. Type of data set: in vivo. The conditions noted are these: 2 mg/kg every two days for 17 days, FIG. 4. As to the method:
as §1
The nano-BCT group was orally administered nano-bruceantin at 2 mg/kg every two days for 17 days, and the free-BCT group was orally administered bruceantin at 2 mg/kg every two days for 17 days.

Data set [4] relates to 22RV1 cells. Kind of data set: Cell growth inhibition assay. Type of data set: cell-based. Conditions: concentration of 10 nM or more, FIG. 5. As to the method: (§2) Castration-resistant prostate cancer cell line 22RV1 cells were cultured with RPMI-1640 (Welgene) medium containing 10% fetal bovine serum (FBS) (Welgene) and 1% penicillin/streptomycin.
(§3) Castration-resistant prostate cancer cell line 22RV1 cells were treated with various concentrations of each of bruceantin (BCT), nano-bruceantin 1 (nano-BCT #1), and nano-bruceantin 2 (nano-BCT #2) and subjected to cell growth inhibition assay and colony formation assay. Reporter gene assay was performed by transfecting 22RV1 cells with an MMTV-LUC reporter, which can measure the transcriptional activities of AR and AR-V7, and treating the cells with various concentrations of each of BCT, nano-BCT #1, and nano-BCT #2 depending on the presence or absence of the androgen dihydrotestosterone (DHT) (DHT+, AR transcriptional activity measurement condition; DHT−, AR-V7 transcriptional activity measurement condition). Immunoblotting was performed by treating 22RV1 cells with various concentrations of each of BCT and nano-BCT, extracting protein from the cells, electrophoresise protein on 4 to 12% SDS-PAGE gel, and transferring the electrophoresed protein to a PVDF membrane, followed by incubation with antibody.

Data set [5] has as its system 22RV1 cells. Kind of data set: Colony formation assay. Type of data set: cell-based. Conditions: various concentrations, FIG. 6. As to the method: as §2, §3
Data set [6] relates to AR. Kind of data set: MMTV-LUC reporter gene assay, DHT+ (AR transcriptional activity). Type of data set: cell-based. The conditions noted are these: 22RV1 cells, FIG. 7. As to the method: as §2, §3
Data set [7] has as its system AR-V7. Kind of data set: MMTV-LUC reporter gene assay, DHT− (AR-V7 transcriptional activity). Type of data set: cell-based. The conditions noted are these: 22RV1 cells, FIG. 7. As to the method: as §2, §3
Data set [8] deals with AR. Kind of data set: Immunoblotting for AR in 22RV1 cells. It counts as cell-based. The conditions noted are these: various concentrations, FIG. 8. How it is done:
as §2, §3

Data set [9] deals with AR-V7. Kind of data set: Immunoblotting for AR-V7 in 22RV1 cells. The conditions noted are these: various concentrations, FIG. 8. Type of data set: cell-based. As to the method: as §2, §3
The subject of the next data set is CWR22RV1. Kind of data set: CWR22RV1 xenograft mice: tumor volume and bioluminescence. It counts as in vivo. Conditions: oral, 2 mg/kg every two days for 19 days. How it is done: Castration-resistant prostate cancer cell line CWR22RV1 was purchased from ATCC (USA), and xenograft mice were constructed by subcutaneously injecting CWR22RV1 into nude mice.
The xenograft mice were divided into a nanoparticle-treated group (nano-Veh), a control group (free-Veh), a nano-bruceantin-treated group (nano-BCT), and a bruceantin-treated group (free-BCT). The nano-BCT group and the free-BCT group were orally administered nano-bruceantin and bruceantin, respectively, at 2 mg/kg every two days for 19 days. Thereafter, tumor volume and bioluminescence were measured for each treated group.

The subject of data set [10] is AR/AR-V7. The conditions noted are these: castration-resistant prostate cancer cell line 22RV1 cells; KR 10-2020-0139625; cited from earlier work.
Data set [11] concerns AR/AR-V7. Conditions: androgen-dependent LNCaP cells; KR 10-2020-0139625; cited from earlier work.

Like-named read-outs stand apart in the source and are kept apart here.

In data set [1], `COC(=O)[C@@]12OC[C@]34[C@H]([C@@H](O)[C@@H]1O)[C@@]1(C)CC(=O)C(O)=C(C)[C@@H]1C[C@H]3OC(=O)[C@H](OC(=O)/C=C(\C)C(C)C)[C@@H]24` [bruceantin] had a solubility of less than 100 µg/mL. The “side effects upon short-term oral administration” value with nude mice [2] is “accompanied by acute side effects such as exophthalmos, sudden death, and weight loss”. For the same compound, the “side effects upon long-term oral administration” value in the data set on nude mice [3] was “accompanied by side effects such as exophthalmos, sudden death, and weight loss”. Also, the “cell growth inhibitory effect, compared between groups” value in the data set with 22RV1 cells [4] was “similar”. Moreover, the “colony formation, compared between groups” value in the data set on 22RV1 cells [5] is reported as “no significant difference”. For the same compound, the “AR transcriptional activity (reporter gene), compared between groups” value in the data set on AR [6] is “no significant difference”. In addition, the “AR-V7 transcriptional activity (reporter gene), compared between groups” value in the data set with AR-V7 [7] is listed as “no significant difference”. Besides, the “AR protein (immunoblotting)” value with AR [8] was “decreased”. Besides, the “AR-V7 protein (immunoblotting)” value in the data set on AR-V7 [9] is on record as “decreased”. The tumor volume entry with CWR22RV1 (FIG. 9) is “decrease in tumor volume was from day 13”. Further, the bioluminescence entry in the data set on CWR22RV1 (FIG. 10) is “decrease in bioluminescence”. Moreover, the “transcriptional activity of AR/AR-V7” value is “simultaneously and strongly inhibit” with AR/AR-V7 [10]; “simultaneously and strongly inhibit” in the data set with AR/AR-V7 [11].
